Experiments:
[1] = target: T1, SMARCA4 (Homo sapiens, UniProt P51532); experiment: Cellular degradation assay, SMARCA4 (Table 1); format: cell-based
T1 construct: endogenous in cells

[2] = target: T2, SMARCA2 (Homo sapiens, UniProt P51531); experiment: SMARCA2 Cellular Degradation Assay (Western blot analysis on Jess platform); format: cell-based; settings: for DC50 / Dmax: cellular degradation; for Fold Selectivity SMARCA4/2: ratio DC50 SMARCA4 / DC50 SMARCA2
T2 construct: endogenous in cells
Summary of the method: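 Tumor-derived cell pellets (5×10E5-1×10E6 live cells) lysed in RIPA + 0.2% SDS, phosphatase/protease inhibitors, benzonase; 5 μg protein/capillary on Jess; chemiluminescence/fluorescence immunoassay; SMARCA2/actin peak area, % of vehicle.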

T2 sequence (P51531 whole entry, species assumed): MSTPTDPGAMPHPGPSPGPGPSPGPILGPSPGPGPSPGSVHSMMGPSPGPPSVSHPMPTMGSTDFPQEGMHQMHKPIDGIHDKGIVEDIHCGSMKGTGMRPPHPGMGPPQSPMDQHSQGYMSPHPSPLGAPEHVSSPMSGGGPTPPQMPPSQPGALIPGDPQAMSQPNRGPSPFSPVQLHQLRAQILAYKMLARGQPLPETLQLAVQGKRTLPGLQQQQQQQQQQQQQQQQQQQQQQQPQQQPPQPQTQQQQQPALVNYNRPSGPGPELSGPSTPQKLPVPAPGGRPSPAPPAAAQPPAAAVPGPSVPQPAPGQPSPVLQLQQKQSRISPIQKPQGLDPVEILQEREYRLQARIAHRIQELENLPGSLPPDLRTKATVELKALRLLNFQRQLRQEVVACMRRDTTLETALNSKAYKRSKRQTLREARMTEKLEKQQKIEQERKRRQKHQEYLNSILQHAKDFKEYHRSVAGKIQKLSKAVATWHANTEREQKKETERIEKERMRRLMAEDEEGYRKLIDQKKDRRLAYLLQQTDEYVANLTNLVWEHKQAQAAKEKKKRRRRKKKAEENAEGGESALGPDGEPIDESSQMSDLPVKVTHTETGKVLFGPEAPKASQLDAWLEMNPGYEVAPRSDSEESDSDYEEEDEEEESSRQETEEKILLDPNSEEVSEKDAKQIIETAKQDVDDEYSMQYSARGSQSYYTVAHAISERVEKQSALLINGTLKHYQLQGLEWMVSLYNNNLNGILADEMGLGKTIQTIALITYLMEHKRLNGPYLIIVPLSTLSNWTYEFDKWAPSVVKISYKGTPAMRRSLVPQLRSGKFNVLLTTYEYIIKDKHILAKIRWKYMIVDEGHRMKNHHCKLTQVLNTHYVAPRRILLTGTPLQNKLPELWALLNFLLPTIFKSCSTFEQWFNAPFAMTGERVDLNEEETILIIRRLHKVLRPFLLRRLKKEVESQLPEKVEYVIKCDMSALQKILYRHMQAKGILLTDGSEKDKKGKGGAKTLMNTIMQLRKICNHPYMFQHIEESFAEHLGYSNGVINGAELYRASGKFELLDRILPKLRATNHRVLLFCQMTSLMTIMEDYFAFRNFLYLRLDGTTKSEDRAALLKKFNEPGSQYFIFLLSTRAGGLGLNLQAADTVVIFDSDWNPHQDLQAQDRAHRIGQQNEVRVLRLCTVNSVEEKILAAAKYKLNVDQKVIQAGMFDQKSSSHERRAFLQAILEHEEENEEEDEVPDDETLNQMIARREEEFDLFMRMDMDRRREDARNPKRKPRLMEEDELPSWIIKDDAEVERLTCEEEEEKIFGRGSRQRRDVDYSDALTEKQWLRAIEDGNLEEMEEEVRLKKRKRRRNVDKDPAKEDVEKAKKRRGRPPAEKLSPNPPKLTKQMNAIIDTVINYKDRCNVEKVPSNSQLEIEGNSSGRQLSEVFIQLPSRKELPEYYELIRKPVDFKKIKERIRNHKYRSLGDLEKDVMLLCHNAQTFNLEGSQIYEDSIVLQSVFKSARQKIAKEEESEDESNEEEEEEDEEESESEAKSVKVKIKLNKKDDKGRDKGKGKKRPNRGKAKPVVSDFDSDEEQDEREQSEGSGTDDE
T1 sequence (P51532 whole entry, species assumed): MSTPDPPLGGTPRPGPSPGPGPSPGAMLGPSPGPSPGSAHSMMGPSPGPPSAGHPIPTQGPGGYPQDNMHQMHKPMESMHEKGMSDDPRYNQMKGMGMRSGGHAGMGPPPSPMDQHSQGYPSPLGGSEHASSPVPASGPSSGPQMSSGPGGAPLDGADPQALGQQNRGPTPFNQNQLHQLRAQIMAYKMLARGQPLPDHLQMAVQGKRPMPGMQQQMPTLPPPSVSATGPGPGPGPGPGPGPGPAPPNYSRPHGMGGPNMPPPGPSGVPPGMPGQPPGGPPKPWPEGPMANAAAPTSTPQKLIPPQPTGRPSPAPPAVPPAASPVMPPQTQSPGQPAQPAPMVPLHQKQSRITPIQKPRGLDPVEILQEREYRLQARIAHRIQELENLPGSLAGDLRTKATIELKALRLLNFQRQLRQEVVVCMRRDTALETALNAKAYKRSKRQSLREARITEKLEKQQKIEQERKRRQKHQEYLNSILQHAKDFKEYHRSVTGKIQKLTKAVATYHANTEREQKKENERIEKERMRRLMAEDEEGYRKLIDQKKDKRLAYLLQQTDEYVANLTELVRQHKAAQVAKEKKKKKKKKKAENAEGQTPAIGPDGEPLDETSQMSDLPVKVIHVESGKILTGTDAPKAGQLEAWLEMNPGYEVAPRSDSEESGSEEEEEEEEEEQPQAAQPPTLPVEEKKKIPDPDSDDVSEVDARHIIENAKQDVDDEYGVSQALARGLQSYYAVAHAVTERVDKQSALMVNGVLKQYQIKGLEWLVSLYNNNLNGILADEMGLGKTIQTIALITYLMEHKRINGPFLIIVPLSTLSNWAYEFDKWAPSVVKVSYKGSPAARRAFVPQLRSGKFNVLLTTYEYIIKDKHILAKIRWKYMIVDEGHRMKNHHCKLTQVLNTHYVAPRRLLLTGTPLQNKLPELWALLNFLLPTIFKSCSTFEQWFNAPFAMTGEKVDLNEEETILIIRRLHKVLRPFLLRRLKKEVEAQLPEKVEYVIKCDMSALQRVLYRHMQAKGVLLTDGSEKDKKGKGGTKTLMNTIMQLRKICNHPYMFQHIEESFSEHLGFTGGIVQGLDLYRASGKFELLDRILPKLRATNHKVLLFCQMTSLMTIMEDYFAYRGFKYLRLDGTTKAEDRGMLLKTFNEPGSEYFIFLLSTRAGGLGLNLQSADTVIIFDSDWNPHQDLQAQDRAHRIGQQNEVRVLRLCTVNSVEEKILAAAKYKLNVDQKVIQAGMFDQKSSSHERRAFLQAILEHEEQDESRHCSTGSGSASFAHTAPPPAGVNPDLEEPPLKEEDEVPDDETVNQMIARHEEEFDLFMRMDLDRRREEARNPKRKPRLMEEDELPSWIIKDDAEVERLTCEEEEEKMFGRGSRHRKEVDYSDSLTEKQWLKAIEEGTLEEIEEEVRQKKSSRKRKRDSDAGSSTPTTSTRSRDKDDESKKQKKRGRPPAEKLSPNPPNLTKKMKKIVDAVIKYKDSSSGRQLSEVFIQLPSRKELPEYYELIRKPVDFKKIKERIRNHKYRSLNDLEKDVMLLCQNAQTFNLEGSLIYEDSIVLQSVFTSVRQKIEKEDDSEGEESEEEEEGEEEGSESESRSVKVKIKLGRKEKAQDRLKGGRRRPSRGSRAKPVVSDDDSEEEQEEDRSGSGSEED

Dmax [1]	DC50 [2]	Dmax [2]	Fold Selectivity SMARCA4/2 [2]	DC50 [1]	Compound
37.4%	5.1 nM	85.8%	1961	–	Cc1ccnn1C1(C(=O)N(C)C2CCN(CCC3CCN(c4ccc([C@H]5CCC(=O)NC5=O)cc4)CC3)CC2)CCN(c2cnnc(-c3ccccc3O)c2)CC1 (racemic) [Example 78, rac-N-{1-[2-(1-{4-[(3R)-2,6-dioxopiperidin-3-yl]phenyl}piperidin-4-yl)ethyl]piperidin-4-yl}-1-[6-(2-hydroxyphenyl)pyridazin-4-yl]-N-methyl-4-(5-methyl-1H-pyrazol-1-yl)piperidine-4-carboxamide]
21.9%	12.4 nM	70.7%	806	–	CC(C)c1cc(C2(C(=O)N3CC4(CN(CCC5CCN(c6ccc(C7CCC(=O)NC7=O)cc6)CC5)C4)C3)CCN(c3cnnc(-c4ccccc4O)c3)CC2)no1 (racemic) [Example 79, rac-(3R)-3-(4-{4-[2-(6-{1-[6-(2-hydroxyphenyl)pyridazin-4-yl]-4-[5-(propan-2-yl)-1,2-oxazol-3-yl]piperidine-4-carbonyl}-2,6-diazaspiro[3.3]heptan-2-yl)ethyl]piperidin-1-yl}phenyl)piperidine-2,6-dione]
21.9%	14.2 nM	60%	705	–	O=C1CCC(c2ccc(N3CCC(CCN4CC5(C4)CN(C(=O)C4(c6cc7ccccn7n6)CCN(c6cnnc(-c7ccccc7O)c6)CC4)C5)CC3)cc2)C(=O)N1 (racemic) [Example 80, rac-(3R)-3-(4-{4-[2-(6-{1-[6-(2-hydroxyphenyl)pyridazin-4-yl]-4-{pyrazolo[1,5-a]pyridin-2-yl}piperidine-4-carbonyl}-2,6-diazaspiro[3.3]heptan-2-yl)ethyl]piperidin-1-yl}phenyl)piperidine-2,6-dione]
23.8%	11.3 nM	71.2%	883	–	COC1(C(=O)N2CC3(CN(CCC4CCN(c5ccc(C6CCC(=O)NC6=O)cc5)CC4)C3)C2)CCN(c2cnnc(-c3ccccc3O)c2)CC1 (racemic) [Example 82, rac-3-(4-(4-(2-(6-(1-(6-(2-hydroxyphenyl)pyridazin-4-yl)-4-methoxypiperidine-4-carbonyl)-2,6-diazaspiro[3.3]heptan-2-yl)ethyl)piperidin-1-yl)phenyl)piperidine-2,6-dione]
73.3%	2.3 nM	91.8%	9	20.2 nM	COC1(C(=O)NCC2(c3ccccc3)CCN(c3cnnc(-c4ccccc4O)c3)CC2)CCN(CCC2CCN(c3ccc([C@H]4CCC(=O)NC4=O)cc3)CC2)CC1 (racemic) [Example 83, rac-(r)-1-(2-(1-(4-(2,6-dioxopiperidin-3-yl)phenyl)piperidin-4-yl)ethyl)-n-((1-(6-(2-hydroxyphenyl)pyridazin-4-yl)-4-phenylpiperidin-4-yl)methyl)-4-methoxypiperidine-4-carboxamide]
61.9%	4.23 nM	89.5%	11	46.5 nM	O=C1CC[C@H](c2ccc(N3CCC(CCN4CCC(C(=O)NCC5(c6ccccc6)CCN(c6cnnc(-c7ccccc7O)c6)CC5)C5CC54)CC3)cc2)C(=O)N1 (mixture of isomers) [Example 84, rac-2-(2-(1-(4-((r)-2,6-dioxopiperidin-3-yl)phenyl)piperidin-4-yl)ethyl)-n-((1-(6-(2-hydroxyphenyl)pyridazin-4-yl)-4-phenylpiperidin-4-yl)methyl)-2-azabicyclo[4.1.0]heptane-5-carboxamide]
53.7%	22.1 nM	70.5%	452	–	CC1(NC(=O)C2(c3ccccc3)CCN(c3cnnc(-c4ccccc4O)c3)CC2)CCN(C(=O)CN2CCC(c3ccc(N[C@@H]4CCC(=O)NC4=O)cc3)CC2)CC1 (racemic) [Example 86, rac-(r)-n-(1-(2-(4-(4-((2,6-dioxopiperidin-3-yl)amino)phenyl)piperidin-1-yl)acetyl)-4-methylpiperidin-4-yl)-1-(6-(2-hydroxyphenyl)pyridazin-4-yl)-4-phenylpiperidine-4-carboxamide]
22.5%	2.79 nM	87.7%	3583	–	CN(C(=O)C1(c2ccnn2C)CCN(c2cnnc(-c3ccccc3O)c2)CC1)C1CCN(CCC2CCN(c3ccc(C4CCC(=O)NC4=O)cc3)CC2)CC1 (racemic) [Example 87, rac-N-{1-[2-(1-{4-[(3r)-2,6-dioxopiperidin-3-yl]phenyl}piperidin-4-yl)ethyl]piperidin-4-yl}-1-[6-(2-hydroxyphenyl)pyridazin-4-yl]-N-methyl-4-(1-methyl-1H-pyrazol-5-yl)piperidine-4-carboxamide]
20.2%	7.76 nM	78.4%	1289	–	Cc1cc(C2(C(=O)N(C)C3CCN(CCC4CCN(c5ccc(C6CCC(=O)NC6=O)cc5)CC4)CC3)CCN(c3cnnc(-c4ccccc4O)c3)CC2)on1 (racemic) [Example 88, rac-N-{1-[2-(1-{4-[(3R)-2,6-dioxopiperidin-3-yl]phenyl}piperidin-4-yl)ethyl]piperidin-4-yl}-1-[6-(2-hydroxyphenyl)pyridazin-4-yl]-N-methyl-4-(3-methyl-1,2-oxazol-5-yl)piperidine-4-carboxamide]
47.3%	3.8 nM	82.1%	2634	–	CN(C(=O)C1(c2cnn(C)c2)CCN(c2cnnc(-c3ccccc3O)c2)CC1)C1CCN(CC2CCN(c3ccc(C4CCC(=O)NC4=O)cc3)CC2)CC1 (racemic) [Example 89, rac-N-{1-[(1-{4-[(3R)-2,6-dioxopiperidin-3-yl]phenyl}piperidin-4-yl)methyl]piperidin-4-yl}-1-[6-(2-hydroxyphenyl)pyridazin-4-yl]-N-methyl-4-(1-methyl-1H-pyrazol-4-yl)piperidine-4-carboxamide]
34.8%	8.55 nM	76.5%	1170	–	Cc1cc(C2(C(=O)N(C)C3CCN(CC4CCN(c5ccc(C6CCC(=O)NC6=O)cc5)CC4)CC3)CCN(c3cnnc(-c4ccccc4O)c3)CC2)on1 (racemic) [Example 90, rac-N-{1-[(1-{4-[(3R)-2,6-dioxopiperidin-3-yl]phenyl}piperidin-4-yl)methyl]piperidin-4-yl}-1-[6-(2-hydroxyphenyl)pyridazin-4-yl]-N-methyl-4-(3-methyl-1,2-oxazol-5-yl)piperidine-4-carboxamide]
41.8%	4.52 nM	79.8%	2212	–	CN(C(=O)C1(c2ccnn2C)CCN(c2cnnc(-c3ccccc3O)c2)CC1)C1CCN(CC2CCN(c3ccc(C4CCC(=O)NC4=O)cc3)CC2)CC1 (racemic) [Example 91, rac-N-{1-[(1-{4-[(3R)-2,6-dioxopiperidin-3-yl]phenyl}piperidin-4-yl)methyl]piperidin-4-yl}-1-[6-(2-hydroxyphenyl)pyridazin-4-yl]-N-methyl-4-(1-methyl-1H-pyrazol-5-yl)piperidine-4-carboxamide]
